The source of these data is patent publication US20160368898A1, “2-PYRIDYLOXY-4-METHYL OREXIN RECEPTOR ANTAGONISTS” (MERCK SHARP & DOHME CORP., priority 2013, published 2016).

pIC50: −log10 of the molar value.

The target in assay [1] is T1, human orexin-2 receptor (hOX2R) (Homo sapiens, UniProt O43614).
T1 construct: expressed in transfected cells; host or cells: CHO cells (grown under G418)
T1 sequence (O43614 1-444): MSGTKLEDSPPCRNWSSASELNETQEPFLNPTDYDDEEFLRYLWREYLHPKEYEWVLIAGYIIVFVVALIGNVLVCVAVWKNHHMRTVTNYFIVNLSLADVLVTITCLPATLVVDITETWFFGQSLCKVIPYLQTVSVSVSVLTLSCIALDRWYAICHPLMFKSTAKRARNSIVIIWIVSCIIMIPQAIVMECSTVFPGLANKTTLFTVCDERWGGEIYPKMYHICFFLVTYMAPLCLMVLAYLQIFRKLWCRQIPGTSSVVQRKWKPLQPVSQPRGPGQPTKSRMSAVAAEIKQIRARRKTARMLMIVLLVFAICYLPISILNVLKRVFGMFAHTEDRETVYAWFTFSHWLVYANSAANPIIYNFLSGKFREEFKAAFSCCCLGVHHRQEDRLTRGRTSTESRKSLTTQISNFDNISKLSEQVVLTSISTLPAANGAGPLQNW
The assay can be described thus: FLIPR Ca2+ Flux Assay, CHO cells expressing the human orexin-2 receptor. In kind it is cell-based. Particulars: agonist 70 pM Ala-6,12 human orexin-A. Here is the method:
The utility of the compounds in accordance with the present invention as orexin receptor OX1R and/or OX2R antagonists may be readily determined without undue experimentation by methodology well known in the art, including the “FLIPR Ca^2+ Flux Assay” (Okumura et al., Biochem. Biophys. Res. Comm. 280:976-981, 2001). In a typical experiment the OX1 and OX2 receptor antagonistic activity of the compounds of the present invention was determined in accordance with the following experimental method. For intracellular calcium measurements, Chinese hamster ovary (CHO) cells expressing the rat orexin-1 receptor or the human orexin-2 receptor, are grown in Iscove's modified DMEM containing 2 mM L-glutamine, […], 1% hypoxanthine-thymidine supplement, 100 U/ml penicillin, 100 μg/ml streptomycin and 10% heat-inactivated fetal calf serum (FCS). The cells are seeded at 20,000 cells/well into Becton-Dickinson black 384-well clear bottom sterile plates coated with poly-D-lysine. All reagents were from GIBCO-Invitrogen Corp. The seeded plates are incubated overnight at 37° C. and 5% CO2. Ala-6,12 human orexin-A as the agonist is prepared as a 1 mM stock solution in 1% bovine serum albumin (BSA) and diluted in assay buffer (HBSS containing 20 mM HEPES, 0.1% BSA and 2.5 mM probenecid, pH7.4) for use in the assay at a final concentration of 70 pM. Test compounds are prepared as 10 mM stock solution in DMSO, then diluted in 384-well plates, first in DMSO, then assay buffer. On the day of the assay, cells are washed 3 times with 100 μl assay buffer and then incubated for 60 min (37° C., 5% CO2) in 60 μl assay buffer containing 1 μM Fluo-4AM ester, 0.02% pluronic acid, and 1% BSA. The dye loading solution is then aspirated and cells are washed 3 times with 100 μl assay buffer. 30 μl of that same buffer is left in each well. Within the Fluorescent Imaging Plate Reader (FLIPR, Molecular Devices), test compounds are added to the plate in a volume of 25 μl, incubated for 5 min and finally 25 μl of agonist is added. Fluorescence is measured for each well at 1 second intervals for 5 minutes and the height of each fluorescence peak is compared to the height of the fluorescence peak induced by 70 pM Ala-6,12 orexin-A with buffer in place of antagonist. For each antagonist, IC50 value (the concentration of compound needed to inhibit 50% of the agonist response) is determined. Alternatively, compound potency can be assessed by a radioligand binding assay (described in Bergman et. al. Bioorg. Med. Chem. Lett. 2008, 18, 1425-1430) in which the inhibition constant (Ki) is determined in membranes prepared from CHO cells expressing either the OX1 or OX2 receptor. The intrinsic orexin receptor antagonist activity of a compound which may be used in the present invention may be determined by these assays.
A general note: Calcium assays in cells follow changes in intracellular calcium, usually with a dye or a luminescent sensor.

The target in the next assay is T2, hOX1R (Homo sapiens, UniProt O43613).
T2 construct: expressed in transfected cells; host or cells: CHO cells (grown under G418)
T2 sequence (O43613 1-425): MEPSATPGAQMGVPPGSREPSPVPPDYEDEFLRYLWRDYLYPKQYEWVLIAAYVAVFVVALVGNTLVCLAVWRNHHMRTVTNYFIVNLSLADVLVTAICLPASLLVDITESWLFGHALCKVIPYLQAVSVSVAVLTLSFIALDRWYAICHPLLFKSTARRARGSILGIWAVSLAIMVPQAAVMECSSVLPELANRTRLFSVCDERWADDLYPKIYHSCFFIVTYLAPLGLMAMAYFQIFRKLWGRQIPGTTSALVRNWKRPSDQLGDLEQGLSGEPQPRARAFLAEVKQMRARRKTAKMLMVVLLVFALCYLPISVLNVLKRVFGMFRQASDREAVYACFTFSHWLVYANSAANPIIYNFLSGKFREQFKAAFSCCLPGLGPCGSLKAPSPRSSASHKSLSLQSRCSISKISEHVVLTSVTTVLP
The assay can be described thus: FLIPR Ca2+ Flux Assay, CHO cells expressing the orexin-1 receptor. In kind it is cell-based. Particulars: agonist 70 pM Ala-6,12 human orexin-A.

With `Cc1ccnc(O[C@@H]2CC[C@@H](C)N(C(=O)c3ccccc3-n3nccn3)C2)c1` [Example 1, 4-Methyl-2-{[(3R,6R)-6-methyl-1-{[2-(2H-1,2,3-triazol-2-yl)phenyl]carbonyl}piperidin-3-yl]oxy}pyridine], in assay [1], the pIC50 is 7.80.

`Cc1ccnc(O[C@@H]2CC[C@@H](C)N(C(=O)c3ccccc3-n3ncnn3)C2)c1` [Example 2, (2-(2H-Tetrazol-2-yl)phenyl)((2R,5R)-2-methyl-5-((4-methylpyridin-2-yl)oxy)piperidin-1-y1)methanone]: the pIC50 on hOX1R is 5.83; in assay [1], 7.77.

For the compound `Cc1ccnc(O[C@@H]2CC[C@@H](C)N(C(=O)c3ccsc3-n3nccn3)C2)c1` [Example 3, 4-methyl-2-{[(3R,6R)-6-methyl-1-{[2-(2H-1,2,3-triazol-2-yl)thiophen-3-yl]carbonyl}piperidin-3-yl]oxy}pyridine], the figures for the pIC50 (on hOX1R; in assay [1]) were 5.78 and 7.36, respectively.

Consider `Cc1ccnc(O[C@@H]2CC[C@@H](C)N(C(=O)c3c(F)cccc3-n3nccn3)C2)c1` [Example 4, 2-{[(3R,6R)-1-{[2-fluoro-6-(2H-1,2,3-triazol-2-yl)phenyl]carbonyl}-6-methylpiperidin-3-yl]oxy}-4-methylpyridine], for which the pIC50 on hOX1R was 6.06; in assay [1] it was 7.55.

As to `Cc1ccnc(O[C@@H]2CC[C@@H](C)N(C(=O)c3ccc(Cl)cc3-n3nccn3)C2)c1` [Example 5, 2-{[(3R,6R)-1-{[4-chloro-2-(2H-1,2,3-triazol-2-yl)phenyl]carbonyl}-6-methylpiperidin-3-yl]oxy}-4-methylpyridine], the values for the pIC50 (on hOX1R; in assay [1]) were 5.79 and 7.54, respectively.

In the case of `Cc1ccnc(O[C@@H]2CC[C@@H](C)N(C(=O)c3ccc(F)cc3-n3nccn3)C2)c1` [Example 6, 2-{[(3R,6R)-1-{[4-fluoro-2-(2H-1,2,3-triazol-2-yl)phenyl]carbonyl}-6-methylpiperidin-3-yl]oxy}-4-methylpyridine], the pIC50 at hOX1R was 5.64; in assay [1], 7.46.

As to `Cc1ccnc(O[C@@H]2CC[C@@H](C)N(C(=O)c3ccc(C)cc3-n3nccn3)C2)c1` [Example 7, 4-methyl-2-{[(3R,6R)-6-methyl-1-{[4-methyl-2-(2H-1,2,3-triazol-2-yl)phenyl]carbonyl}piperidin-3-yl]oxy}pyridine], the pIC50 is 5.63 at hOX1R and 7.23 in assay [1].

In the case of `COc1ccc(C(=O)N2C[C@H](Oc3cc(C)ccn3)CC[C@H]2C)c(-n2nccn2)n1` [Example 8, 6-methoxy-3-({(2R,5R)-2-methyl-5-[(4-methylpyridin-2-yl)oxy]piperidin-1-yl}carbonyl)-2-(2H-1,2,3-triazol-2-yl)pyridine], the pIC50 on hOX1R is < 5.00; in assay [1] it was 6.93.

Consider `Cc1ccnc(O[C@@H]2CC[C@@H](C)N(C(=O)c3ncccc3-n3nccn3)C2)c1` [Example 9, 2-({(2R,5R)-2-methyl-5-[(4-methylpyridin-2-yl)oxy]piperidin-1-yl}carbonyl)-3-(2H-1,2,3-triazol-2-yl)pyridine], for which the values for the pIC50 (on hOX1R; in assay [1]) were 5.75 and 7.35, respectively.

In the case of `Cc1ccnc(O[C@@H]2CC[C@@H](C)N(C(=O)c3ccccc3C3(C#N)CC3)C2)c1` [Example 10, 1-[2-({(2R,5R)-2-methyl-5-[(4-methylpyridin-2-yl)oxy]piperidin-1-yl}carbonyl)phenyl]cyclopropanecarbonitrile], the pIC50 is 5.92 on hOX1R and 7.55 in assay [1].

With `Cc1ccnc(O[C@@H]2CC[C@@H](C)N(C(=O)c3cc(F)ccc3-n3nccn3)C2)c1` [Example 11, 2-{[(3R,6R)-1-{[5-fluoro-2-(2H-1,2,3-triazol-2-yl)phenyl]carbonyl}-6-methylpiperidin-3-yl]oxy}-4-methylpyridine], the pIC50 was 5.98 at hOX1R and 7.49 in assay [1].

As for `Cc1ccnc(O[C@@H]2CC[C@@H](C)N(C(=O)c3ccc(F)cc3-c3nc(C)no3)C2)c1` [Example 12, 2-{[(3R,6R)-1-{[4-fluoro-2-(3-methyl-1,2,4-oxadiazol-5-yl)phenyl]carbonyl}-6-methylpiperidin-3-yl]oxy}-4-methylpyridine], the values for the pIC50 (at hOX1R; in assay [1]) were 5.02 and 6.52, respectively.

With `Cc1ccnc(O[C@@H]2CC[C@@H](C)N(C(=O)c3cccc(F)c3-n3nccn3)C2)c1` [Example 13, 2-{[(3R,6R)-1-{[3-fluoro-2-(2H-1,2,3-triazol-2-yl)phenyl]carbonyl}-6-methylpiperidin-3-yl]oxy}-4-methylpyridine], the pIC50 on hOX1R is 6.02; in assay [1], 7.59.

Consider `Cc1ccnc(O[C@@H]2CC[C@@H](C)N(C(=O)c3ccccc3CS(C)(=O)=O)C2)c1` [Example 14, 4-methyl-2-{[(3R,6R)-6-methyl-1-({2-[(methylsulfonyl)methyl]phenyl}carbonyl)piperidin-3-yl]oxy}pyridine], for which the results for the pIC50 (on hOX1R; in assay [1]) were < 5.00 and 7.14, respectively.

With `COCc1ccccc1C(=O)N1C[C@H](Oc2cc(C)ccn2)CC[C@H]1C` [Example 15, 2-{[(3R,6R)-1-{[2-(methoxymethyl)phenyl]carbonyl}-6-methylpiperidin-3-yl]oxy}-4-methylpyridine], the pIC50 on hOX1R is < 5.00; in assay [1] it was 6.65.

As to `Cc1ccnc(O[C@@H]2CC[C@@H](C)N(C(=O)c3nccnc3-c3ccccn3)C2)c1` [Example 16, 2-({(2R,5R)-2-methyl-5-[(4-methylpyridin-2-yl)oxy]piperidin-1-yl}carbonyl)-3-pyridin-2-ylpyrazine], the pIC50 was 5.51 at hOX1R and 7.40 in assay [1].

On to `Cc1ccnc(O[C@@H]2CC[C@@H](C)N(C(=O)c3cccnc3-n3cc(C)cn3)C2)c1` [Example 17, 3-({(2R,5R)-2-methyl-5-[(4-methylpyridin-2-yl)oxy]piperidin-1-yl}carbonyl)-2-(4-methyl-1H-pyrazol-1-yl)pyridine], for which the figures for the pIC50 (on hOX1R; in assay [1]) were 5.76 and 7.48, respectively.

With `Cc1ccnc(O[C@@H]2CC[C@@H](C)N(C(=O)c3ncccc3-c3noc(C)n3)C2)c1` [Example 18, 2-({(2R,5R)-2-methyl-5-[(4-methylpyridin-2-yl)oxy]piperidin-1-yl}carbonyl)-3-(5-methyl-1,2,4-oxadiazol-3-yl)pyridine], the results for the pIC50 (at hOX1R; in assay [1]) were 5.15 and 6.97, respectively.

In the case of `Cc1ccnc(O[C@@H]2CC[C@@H](C)N(C(=O)c3ccccc3-c3ncccn3)C2)c1` [Example 19, ((2R,5R)-2-methyl-5-((4-methylpyridin-2-yl)oxy)piperidin-1-yl)(2-(pyrimidin-2-yl)phenyl)methanone], the pIC50 at hOX1R was 6.01; in assay [1], 7.57.

On to `Cc1ccnc(O[C@@H]2CC[C@@H](C)N(C(=O)c3ccc(F)cc3-c3ncccn3)C2)c1` [Example 20, 2-[5-fluoro-2-({(2R,5R)-2-methyl-5-[(4-methylpyridin-2-yl)oxy]piperidin-1-yl}carbonyl)phenyl]pyrimidine], for which the pIC50 on hOX1R is 5.80; in assay [1] it was 7.38.

In general, pIC50 refers to −log10 of the IC50, conventionally taken in molar units. A higher pIC50 goes with a low IC50.
